Experimental data from BindingDB's records for doi:10.1016/s0960-894x(03)00136-7 (2003).

Biological target: Serine/threonine-protein phosphatase 2A catalytic subunit alpha (Homo sapiens) (UniProt P67775)
Experiment: Inhibitory activity against protein phosphatase (PP2A) using fluorescein diphosphate as substrate

Serine/threonine-protein phosphatase 2A catalytic subunit alpha (Homo sapiens), sequence (P67775 whole entry, looked up): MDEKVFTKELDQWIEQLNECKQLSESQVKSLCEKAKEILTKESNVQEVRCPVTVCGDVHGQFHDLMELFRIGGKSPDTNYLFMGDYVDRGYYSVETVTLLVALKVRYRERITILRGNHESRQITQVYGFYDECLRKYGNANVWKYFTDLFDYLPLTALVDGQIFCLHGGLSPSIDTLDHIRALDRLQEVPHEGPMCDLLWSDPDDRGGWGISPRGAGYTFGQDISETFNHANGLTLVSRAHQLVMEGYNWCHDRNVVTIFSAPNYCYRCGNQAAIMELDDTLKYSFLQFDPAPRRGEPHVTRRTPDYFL

## CC(C)(O)[C@H]1CC[C@](C)([C@@H](O)CC[C@](O)(CO)C2=CC[C@H]3O[C@@H]([C@]4(C)CC[C@@H](Br)C(C)(C)O4)CC[C@]3(C)O2)O1
  IC50: < 10 µM

## C=C([C@@H](O)C[C@H](O)[C@@]1(C)CC[C@H](C(C)(C)O)O1)[C@H]1CC[C@H]2O[C@@H]([C@]3(C)CC[C@@H](Br)C(C)(C)O3)CC[C@]2(C)O1
  IC50: < 10 µM
